# Source: the supplement of paper PMC4862054
# Legend:
# Settings in all cases: incubation time: 72 h
# [1] = test system: MCF-10A; experiment: normalised response (% of control), CellTox Green; higher = less cell death (100 = DMSO, 0 = benzethonium chloride kill control)
# In short: (§1)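 Values are normalised signals, each belonging to one concentration of the series. Breast cancer cells (20 µl suspension) were seeded into 384-well plates with compound at 5 concentrations in 10-fold steps over a compound-specific 10,000-fold range and incubated 72 h. Readouts were CellTox Green fluorescence (485/520 nm), then CellTiter-Glo luminescence after 10 min at room temperature, with each plate set to 0.1 % DMSO as 100 and a positive kill control as 0.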
# [2] = test system: HDQ-P1; experiment: as above
# In short: as §1
# [3] = test system: BT-549; experiment: as above
# In short: as §1
# [4] = test system: HCC1143; experiment: as above
# In short: as §1
# [5] = test system: HCC1599; experiment: as above
# In short: as §1
# [6] = test system: CAL-51; experiment: as above
# In short: as §1
# [7] = test system: CAL-120; experiment: as above
# In short: as §1
# [8] = test system: MDA-MB-468; experiment: as above
# In short: as §1
# [9] = test system: CAL-148; experiment: as above
# In short: as §1
# [10] = test system: MDA-MB-453; experiment: as above
# In short: as §1
# [11] = test system: HCC1937; experiment: as above
# In short: as §1
# [12] = test system: MDA-MB-231; experiment: as above
# In short: as §1
# [13] = test system: BT-474; experiment: as above
# In short: as §1
# [14] = test system: DU-4475; experiment: as above
# In short: as §1
# [15] = test system: CAL-85-1; experiment: as above
# In short: as §1
# [16] = test system: MDA-MB-436; experiment: as above
# In short: as §1
# [17] = test system: Hs578T; experiment: as above
# In short: as §1
# [18] = test system: MFM-223; experiment: as above
# In short: as §1
# [19] = test system: SK-BR-3; experiment: normalised response (% of control), CellTiter-Glo; higher = more viable cells (100 = DMSO, 0 = benzethonium chloride kill control)
# In short: as §1
# [20] = test system: MCF-10A; experiment: as above
# In short: as §1
# [21] = test system: HDQ-P1; experiment: as above
# In short: as §1
# [22] = test system: BT-549; experiment: as above
# In short: as §1
# [23] = test system: HCC1143; experiment: as above
# In short: as §1
# [24] = test system: HCC1599; experiment: as above
# In short: as §1
# [25] = test system: CAL-51; experiment: as above
# In short: as §1
# [26] = test system: CAL-120; experiment: as above
# In short: as §1
# [27] = test system: MDA-MB-468; experiment: as above
# In short: as §1
# [28] = test system: CAL-148; experiment: as above
# In short: as §1
# [29] = test system: MDA-MB-453; experiment: as above
# In short: as §1
# [30] = test system: HCC1937; experiment: as above
# In short: as §1
# [31] = test system: MDA-MB-231; experiment: as above
# In short: as §1
# [32] = test system: BT-474; experiment: as above
# In short: as §1
# [33] = test system: DU-4475; experiment: as above
# In short: as §1
# [34] = test system: CAL-85-1; experiment: as above
# In short: as §1
# [35] = test system: MDA-MB-436; experiment: as above
# In short: as §1
# [36] = test system: Hs578T; experiment: as above
# In short: as §1
# [37] = test system: MFM-223; experiment: as above
# In short: as §1
SMILES,normalised response [1] [%],normalised response [2] [%],normalised response [3] [%],normalised response [4] [%],normalised response [5] [%],normalised response [6] [%],normalised response [7] [%],normalised response [8] [%],normalised response [9] [%],normalised response [10] [%],normalised response [11] [%],normalised response [12] [%],normalised response [13] [%],normalised response [14] [%],normalised response [15] [%],normalised response [16] [%],normalised response [17] [%],normalised response [18] [%],normalised response [19] [%],normalised response [20] [%],normalised response [21] [%],normalised response [22] [%],normalised response [23] [%],normalised response [24] [%],normalised response [25] [%],normalised response [26] [%],normalised response [27] [%],normalised response [28] [%],normalised response [29] [%],normalised response [30] [%],normalised response [31] [%],normalised response [32] [%],normalised response [33] [%],normalised response [34] [%],normalised response [35] [%],normalised response [36] [%],normalised response [37] [%]
CCn1c(C(=O)N(C2CC2)C2CC2)cc2c3c(ncn3C)c(Nc3cc(C)n(C)n3)nc21 (1000 nM),117,96.2,94.2,106,89.3,98.2,96.2,95.6,87.1,104,120,102,98.8,103,102,98.2,93,98.5,101,99.9,98.8,98.2,103,124,70.1,96.4,85.4,96.6,92.7,101,92.5,92.7,97.2,99.5,105,95.8,95.2
CCN(CC)CCCC(C)Nc1ccnc2cc(Cl)ccc12 (configuration not stated) [Chloroquine] (10000 nM),95.2,81.6,93.2,110,86.2,91.5,-30.1,119,35.5,62.1,91.5,50.4,35.4,96.2,93,59.4,94.3,67.7,35.2,74.2,86.2,73.3,89.6,65.3,51.7,50.6,57.4,60.2,28.8,65.7,73.9,72.1,80.1,57.7,77.3,97.4,62.9
O=C(O)CNC(=O)c1c(O)c2ccccc2n(Cc2ccccc2)c1=O [IOX-2] (5000 nM),84.6,105,72.8,97.1,98.2,94.9,98.4,57.3,98.5,110,114,66.4,100,103,104,93.2,58.2,,99.7,104,100,96.2,103,114,85.1,101,106,100,93.1,93.3,91.3,95.7,99.3,96.9,96.7,100,97.7
CN(C)C(=N)NC(=N)N [Metformin] (10000 nM),103,101,76.2,72.2,82.2,66.7,88.3,79.5,97.9,80.9,66.8,90.4,95,89.4,98,55.5,83.7,99.2,77.8,87.7,97.2,98.4,93.6,108,75.2,106,92.7,98.3,80.3,99.5,93.5,91,79.5,102,101,98.9,92.4
CN(Cc1cnc2nc(N)nc(N)c2n1)c1ccc(C(=O)N[C@@H](CCC(=O)O)C(=O)O)cc1 [Methotrexate] (5000 nM),107,107,125,109,98.8,115,98.9,129,100,107,110,116,102,102,102,97.6,102,97.5,115,107,51.3,97.8,83.5,97.9,56.8,21.1,99.4,100,110,31.3,77.5,78.1,102,51.4,81.5,110,104
O=[N+]([O-])c1ccc2c(c1)S(=O)(=O)C=C2 [Stattic] (5000 nM),,106,-67.2,118,95.2,-12.3,105,-175,51.2,108,28.6,51.2,12.7,104,-36.1,106,-141,4.35,80.9,105,92.2,0.47,93.1,86.9,0.16,88.3,2.23,46.4,45,22.3,30.9,68.9,101,1.59,75.7,29.6,22.8
CC(C)n1cnc2c(NCCc3ccc(O)cc3)nc(-c3csc4ccccc34)nc21 [StemRegenin 1] (1000 nM),83.1,102,-112,119,96,118,104,137,85.1,110,89.9,114,100,107,118,110,88.4,81.1,96.5,94,89.6,77.9,110,111,121,99.9,100,99.3,102,95.4,110,108,103,98.8,100,105,93.8
